Measurements reported in patent US20240197900A1, “DISACCHARIDE LINKER, DISACCHARIDE-SMALL MOLECULE DRUG CONJUGATE AND SUGAR CHAIN FIXED-POINT ANTIBODY-DRUG CONJUGATE, AND PREPARATION METHOD THEREFOR AND USE THEREOF” (priority 2021, published 2024).

Molecular target: Endo-S2 (Streptococcus pyogenes serotype M49, UniProt T1WGN1)
Assay: Screening of sugar substrates: transfer of oxazoline substrates to deglycosylated antibody by Endo-S2
Assay type: biochemical
Details: substrate 1.5 mM, (Fuc α1,6)GlcNAc-Herceptin 5 mg/mL, Endo-S2 0.2 mg/mL, 3 h; for recognition by / transfer activity of Endo-S2 (in words): 30° C., FIG. 1B
Procedure: Different sugar substrates (1 equivalent, including monosaccharide, disaccharide and trisaccharide structures) were weighed and dissolved in 50 mM PB, pH 7.0 buffer, CDMBI (5 equivalents) was added to the above system, mixed well and cooled to 0° C. Potassium phosphate (15 eq) was added, the final concentration of the sugar substrates in the reaction system was 10 mM, and the reaction was carried out at 0° C. for 2 h. Plenty of precipitate was observed, which was removed by centrifugation. The supernatant was oxazoline substrates G1, G12, G15-G20 containing salts, which were directly used for the next step of screening.
Oxazoline substrates (G1, G12, G15-G20), deglycosylated antibody (Fuc α1.6) GlcNAc-Herceptin and endoglycosidase Endo-S2 were sequentially added to 50 mM Tris-HCl, pH 7.2 buffer, such that the final concentrations of each were 1.5 mM, 5 mg/mL, and 0.2 mg/mL, respectively, which was incubated at 30° C. for 3 h for detection by mass spectrometry. At the same time, a control group without endoglycosidase was set to eliminate the influence of non-enzymatic reactions.

Chain of Endo-S2 (T1WGN1 37-843): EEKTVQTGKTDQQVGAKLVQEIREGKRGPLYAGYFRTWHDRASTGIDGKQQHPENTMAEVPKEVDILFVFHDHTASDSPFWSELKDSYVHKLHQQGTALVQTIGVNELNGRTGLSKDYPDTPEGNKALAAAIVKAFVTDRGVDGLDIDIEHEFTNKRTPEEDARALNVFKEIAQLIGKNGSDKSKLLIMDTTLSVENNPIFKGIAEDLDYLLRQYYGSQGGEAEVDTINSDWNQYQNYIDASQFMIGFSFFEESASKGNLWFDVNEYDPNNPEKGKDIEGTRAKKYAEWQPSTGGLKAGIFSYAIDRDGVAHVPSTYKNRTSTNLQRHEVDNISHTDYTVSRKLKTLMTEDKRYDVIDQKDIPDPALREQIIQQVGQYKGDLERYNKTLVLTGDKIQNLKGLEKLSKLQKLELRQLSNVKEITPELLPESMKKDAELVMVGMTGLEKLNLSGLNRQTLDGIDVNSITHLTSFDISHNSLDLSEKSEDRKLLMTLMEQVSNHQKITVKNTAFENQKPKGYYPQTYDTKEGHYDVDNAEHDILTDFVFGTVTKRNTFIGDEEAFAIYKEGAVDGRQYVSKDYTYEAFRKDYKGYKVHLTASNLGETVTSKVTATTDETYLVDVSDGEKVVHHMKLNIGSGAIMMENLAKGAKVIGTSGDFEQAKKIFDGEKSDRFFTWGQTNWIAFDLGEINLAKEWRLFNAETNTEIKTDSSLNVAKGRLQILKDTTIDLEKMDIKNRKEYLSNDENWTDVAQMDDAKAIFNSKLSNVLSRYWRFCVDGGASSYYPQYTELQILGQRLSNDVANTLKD

| Compound | transfer efficiency to the deglycosylated antibody (Tris-HCl pH 7.2, 30° C., mass spectrometry) | recognition by / transfer activity of Endo-S2 (in words) |
| --- | --- | --- |
| CC1=NC2[C@@H](O1)OC(CO)[C@@H](O[C@@H]1OC(CO)[C@H](O)[C@H](O)C1O)[C@@H]2O (stereo partly drawn) [G1] | 68% | – |
| CC(=O)N[C@H]1C([C@H](O)[C@H](O)CO)O[C@@](OCC2O[C@@H](O[C@@H]3C(CO)O[C@@H]4OC(C)=NC4[C@H]3O)C(O)[C@@H](O)[C@H]2O)(C(=O)O)C[C@H]1O (stereo partly drawn) [G12] | – | well recognized |
| CC1=NC2C(O[C@@H]3OC(C)[C@@H](O)C(O)C3O)[C@H](O[C@@H]3OC(CO)[C@H](O)C(O)C3O)C(CO)O[C@@H]2O1 (stereo partly drawn) [G20] | – | greatly reduced |
